Measured values taken from patent US7179954B1, “Isolated nucleic acids coding for a nuclear base transporter and uses thereof” (Carnegie Insitution of Washington, priority 1999, dated 2007).

Experiments:
Type in all cases: cell-based
PUP2 = molecular target: T1, PUP2 (Arabidopsis thaliana, UniProt Q94GB1); assay: Adenine transport by PUP2
T1 construct: expressed in transfected cells; host or cells: Saccharomyces cerevisiae (inferred)
T1 sequence (Q94GB1 1-347 isoform Q94GB1-2): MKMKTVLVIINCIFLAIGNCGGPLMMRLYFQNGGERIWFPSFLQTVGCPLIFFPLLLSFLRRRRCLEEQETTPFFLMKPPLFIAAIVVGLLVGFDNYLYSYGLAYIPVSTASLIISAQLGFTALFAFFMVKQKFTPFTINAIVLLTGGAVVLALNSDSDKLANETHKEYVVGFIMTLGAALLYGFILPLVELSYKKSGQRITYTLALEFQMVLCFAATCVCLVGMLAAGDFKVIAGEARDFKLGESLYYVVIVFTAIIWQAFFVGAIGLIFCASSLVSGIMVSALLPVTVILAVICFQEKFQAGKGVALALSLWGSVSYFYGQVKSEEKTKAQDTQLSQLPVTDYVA
Procedure: (§1) Substrate solution: For the substrate solution what is concerned is a 100 mM sodium phosphate buffer pH 4.5 with 1% glucose and 9.25 Bq/μl of radioactively labelled substrate (25–100 μM [^14C] adenine or [^14C] cytosine). In addition the substrate solution contains the unlabelled substrate, possible inhibitors and competitors in double end-concentration. For estimation of the optimum pH the pH value of the sodium phosphate buffer is also changed. When the influence of glucose on the uptake rate is measured neither the cell suspension nor the substrate solution contains glucose. Glucose is only added after starting the uptake measurements at the commencement of measuring at an end-concentration of 1%.

PUP1 = PUP1 (Arabidopsis thaliana, UniProt Q9FZ96, S63G); assay: Voltage and current measurement in Xenopus oocytes expressing PUP1; design: a primer was used which demolishes the STOP codon of PUP1 and simultaneously inserts a NotI excision site; expressed in transfected cells; host or cells: Xenopus oocytes injected with in vitro transcribed RNA
PUP1, sequence (Q9FZ96 whole entry S63G): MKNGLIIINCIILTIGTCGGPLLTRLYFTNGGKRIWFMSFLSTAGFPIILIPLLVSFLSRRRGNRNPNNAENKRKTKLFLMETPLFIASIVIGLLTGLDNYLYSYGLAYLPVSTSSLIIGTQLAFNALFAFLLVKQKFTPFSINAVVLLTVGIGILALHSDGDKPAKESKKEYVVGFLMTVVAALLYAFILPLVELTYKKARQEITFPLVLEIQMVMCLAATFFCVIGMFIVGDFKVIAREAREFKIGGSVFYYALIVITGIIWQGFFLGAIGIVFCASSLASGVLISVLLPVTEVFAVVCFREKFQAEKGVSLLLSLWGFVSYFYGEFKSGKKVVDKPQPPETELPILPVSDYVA
Procedure: The one-way directed currents are measured as soon as adenine is added. The current strength is dependent on the concentration (bars indicate the current on the ordinate and the time on the abscissa).
The cDNA for PUP1 was excised with NotI and cloned in an oocyte expression vector containing untranslated 5′ and 3′ regions of the β-globin from Xenopus. The cDNA was then replicated by means of PCR. SP6 (from the oocyte vector) was used as upstream primer, as downstream primer a primer was used which demolishes the STOP codon of PUP1 and simultaneously inserts a NotI excision site. This PCR fragment was excised by NotI and HindIII and ligated into an oocyte expression vector which in addition contains behind the NotI excision site the gene for GFP (“green fluorescent protein” from the jellyfish). In that way an open reading-frame is constructed for a fusion protein from PUP1 and GFP. By insertion of the NotI excision site a linker with three base pairs coding for alanine is constructed. The plasmid was linearized with MIuI, and RNA was transcribed in vitro by means of SP6 polymerase and absorbed into water to about 1 ng/nl. Each oocyte (ripening stage 5 to 6) was injected with 50 nl. […]
For voltage measurement a glass electrode filled with 3M KCl was stuck into the oocyte. With a Dagan amplifier the potential was measured relative to the reference electrode. […]

[1] = molecular target: T2, PUP1 nuclear base transporter (Arabidopsis thaliana, UniProt Q9FZ96); assay: Uptake of radioactively labelled adenine and cytosine by yeast strain MG887ura3-::pFL61-PUP1; conditions: initial concentration medium 200 μM; intracellular, cell volume estimated as four times the dry weight
T2 construct: The PUP1 protein expressed by the yeast strain MG887ura3^−::pFL61-PUP1; expressed in transfected cells; host or cells: Saccharomyces cerevisiae MG887ura3- (fcy2), plasmid pFL61-PUP1
T2 sequence (Q9FZ96 whole entry S63G): as above
Procedure: (§2) For measuring the rate of uptake the yeast strains MG887ura3^−::pFL61, MG887ura3^−::pFL61-PUP1 and their original strain Σ1278b (Dubois & Grenson, 1979, Mol. Gen. Genet. 175, 67–76) were cultured in complete medium (YPD) without uracil and with 2% glucose as carbon source up to an OD600 of 0.6 at 28° C. The cells were harvested at 3000 g, washed twice with water and brought to an OD600 of 12 with sodium phosphate buffer (100 mM, pH 4.5), 1% glucose. The cell suspension was stored in 100 μl portions on ice up to the beginning of the uptake measurements. Before the start of the uptake measurements the cells were pre-incubated at 30° C. for 2 minutes. The reaction was then started, by which 100 μl of radioactively labelled substrate solution was added to 100 μl cell suspension. The reaction mixture was incubated at 30° C. and after 30, 60, 120 and 180 seconds in each case 50 μl of suspension was withdrawn and placed in 4 ml of ice-cold water (in measurements over 180 seconds more cell suspension and substrate solution were correspondingly added). The cells were absorbed on to glass fibre filters and washed with 4 ml of ice-cold water. The radioactivity on the filters was finally ascertained in a liquid scintillation counter.
as §1
(§3) In Table 1 the uptake of radioactively labelled adenine and cytosine mediated by the PUP1 nuclear base transporter is indicated by the yeast strain MG887ura3^−::pFL61-PUP1. For calculation of the intracellular concentration the cell volume is estimated as four times the dry weight (Ninnemann et al., 1994, EMBO J. 15, 3464–3471). The uptake occurs against a concentration gradient.

[2] = molecular target: T3, PUP1 nuclear base transporter (Arabidopsis thaliana, UniProt Q9FZ96, S63G); assay: as above
T3 construct: The PUP1 protein expressed by the yeast strain MG887ura3^−::pFL61-PUP1; expressed in transfected cells; host or cells: Saccharomyces cerevisiae MG887ura3- (fcy2), plasmid pFL61-PUP1
T3 sequence (Q9FZ96 whole entry S63G): as above
Procedure: as §2, §1, §3

FCY2 transporter = molecular target: T4, FCY2 transporter (Saccharomyces cerevisiae, UniProt P17064); assay: Adenine uptake by the yeast's own FCY2 transporter (competition experiment reference); conditions: substrate concentration 25 μM
T4 construct: in comparison to the yeast's own FCY2 transporter; endogenous in cells
T4 sequence (P17064 1-533): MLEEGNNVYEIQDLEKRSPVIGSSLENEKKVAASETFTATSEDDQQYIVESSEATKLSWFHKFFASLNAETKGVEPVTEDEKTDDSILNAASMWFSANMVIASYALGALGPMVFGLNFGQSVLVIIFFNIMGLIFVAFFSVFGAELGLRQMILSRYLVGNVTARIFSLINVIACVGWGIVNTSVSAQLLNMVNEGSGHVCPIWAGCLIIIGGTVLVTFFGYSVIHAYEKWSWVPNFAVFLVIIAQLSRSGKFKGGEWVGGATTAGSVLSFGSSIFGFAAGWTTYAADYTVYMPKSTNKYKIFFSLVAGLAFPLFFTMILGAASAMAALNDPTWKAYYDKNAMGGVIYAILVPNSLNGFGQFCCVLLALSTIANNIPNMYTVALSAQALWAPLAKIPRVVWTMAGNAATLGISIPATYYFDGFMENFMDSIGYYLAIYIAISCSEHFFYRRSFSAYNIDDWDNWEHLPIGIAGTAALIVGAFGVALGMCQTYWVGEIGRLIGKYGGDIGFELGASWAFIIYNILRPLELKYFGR
Procedure: as §2, with “The reaction mixture was incubated at 30° C. and after 30, 60, 120 and 180 seconds in each case 50 μl of suspension was withdrawn and placed in 4 ml of ice-cold water (in measurements over 180 seconds more cell suspension and substrate solution were correspondingly added). The cells were absorbed on to glass fibre filters and washed with 4 ml of ice-cold water.” left out
Substrate solution: For the substrate solution what is concerned is a 100 mM sodium phosphate buffer pH 4.5 with 1% glucose and 9.25 Bq/μl of radioactively labelled substrate (25–100 μM [^14C] adenine or [^14C] cytosine). […] When the influence of glucose on the uptake rate is measured neither the cell suspension nor the substrate solution contains glucose. […]

Nc1ncnc2nc[nH]c12 [Adenine, adenine]
Transport by PUP2 (PUP2): in a position to transport adenine | Effect on oocyte membrane potential (PUP1; adenine in the bath solution, resting potential about -30 mV at pH 7.3): provokes depolarization of the oocyte | Effect on current (PUP1; oocytes held at a voltage of -80 mV): induces a current in one direction | End conc Cells [1]: 2350 µM | Enrichment factor ([2]; cells versus medium, initial concentration medium 200 μM): 15 | End conc. Medium ([2]; initial concentration medium 200 μM, yeast strain MG887ura3-::pFL61-PUP1): 155 µM | Uptake of radioactively labelled adenine (set at 100%) ([2]; substrate concentration 25 μM, PUP1 expressed in yeast): 1.7 nmol.min^−1 .mg^−1 dry weight | Uptake of radioactively labelled adenine (set at 100%) (FCY2 transporter): 0.9 nmol.min^−1 .mg^−1 dry weight
